Experiment [1] has as its system actin network of HeLa cells. Put plainly: Stability of the actin network to a depolymerization induced by latrunculin B. The class given is cell-based, Human. As for the experimental part:
7. a step of analysis of the effect of the compound to be tested on the actin network, via incubation of HeLa cells with the compound to be tested. […] When the actin network is stabilized, the latrunculin-induced depolymerization of the actin network is limited.
The cells are grown on glass coverslips and incubated as for the tubulin staining. After elimination of the medium, the cells are washed with warm PBS then fixed, by addition of a solution of PBS/3.7% formaldehyde for 30 minutes at 37° C. The cells are washed with PBS then permeabilized with a solution of PBS/0.2% Triton X100 for 15 minutes at room temperature. After another washing with PBS, the cells are incubated with a solution of PBS/1% BSA for 30 minutes at room temperature. The cells are then incubated with phalloidin (0.165 μM final concentration) labelled with Alexa Fluor® 488 (Molecular Probes, Invitrogen) for 20 minutes at room temperature. The cells are washed a final time with PBS then dehydrated with pure ethanol. Finally, the cells are fixed to slides using a Fluorsave™ mounting solution.
8) Test for the Action on the Actin Cytoskeleton: Protocol for Evaluating, in Cells, the Stability of the Actin Network to a Depolymerization Induced by Latrunculin B
3 days before the experiment, glass coverslips are deposited under sterile conditions in 24-well microplates. In each well, HeLa cells (15 000 cells per well) in the exponential growth phase are seeded in 500 μl of RPMI medium.
PBS (phosphate buffered saline, ref. P4417, Sigma), PBS/1% BSA (bovine serum albumin, Ref. A3059, Sigma), aliquots of 15 ml, stored at −20° C.; PBS/0.2% Triton X100 (Ref. T8787, Sigma); PBS/0.01% Tween® 20 (Ref. P9916, Sigma); PBS/0.3% BSA/0.02% NaN3 (Ref. for the NaN3: 6688, Merck), aliquots of 15 ml stored at −20° C. Phalloidin A488, (Ref. A12379, Invitrogen). L4: rabbit anti-detyrosinated-tubulin polyclonal antibody (cf. Fonrose et al., Cancer Res., […], 67:3371-3378). Anti-rabbit antibody coupled to Cyanine 3 (Ref. 111.165.144, Jackson Laboratories). […]

Experiment [2] deals with LIMK1 activity in HeLa cells. Description: Cellular LIMK1 activity assay (Ser3-cofilin phosphorylation, western blot). The following applies: for Inhibition of Ser3-cofilin phosphorylation in HeLa cells: 2 h, indicated concentrations. The class given is cell-based, Human. As for the experimental part:
HeLa cells were treated by compounds (or equivalent amount of DMSO as control) at indicated concentrations and time. Whole cell extracts were prepared using RIPA buffer (50 mM Tris-HCl pH=7.4, 150 mM NaCl, 1% NP-40, 0.5% sodium deoxycholate, 1% SDS, 1 mM EGTA, 1 mM EDTA, 5% glycerol, 1 mM DTT) supplemented with protease inhibitors (Sigma, P8340) and phosphatase inhibitors (Sigma, P5726). About thirty micrograms of proteins were loaded and migrated through a 12% SDS-PAGE. After electro-transfer, the nitrocellulose membrane was saturated with PBS, 0.1% Tween® 20, 5% Bovin Serum Albumin. Amount and phosphorylation status of cofilin were estimated using the polyclonal antibodies anti-cofilin (Cytoskeleton, #ACFLO2) and anti-phosphocofilin (Ser3) (Cell Signaling, #3311). Goat anti-rabbit IgG-HorseRadish Peroxidase conjugated (Biosource, #ALI0404) was used as secondary antibody. Detection was performed using ECL plus western blotting detection system (GE Healthcare).
HeLa cells were treated by 25 μM Compound 1 (H06) for 2 h (lane 2). Culture medium was then discarded and fresh medium (RPMI) was added. At different times after RPMI addition (lane 3, 30 minutes; lane 4, 1 hour; lane 5, 1.5 hour; lane 6, 2 hours; lane 7, 4 hours), amount and phosphorylation status of cofilin were determined as described in Example 2. The lane 1 corresponds to time “0”, i.e. a cell extract of cells that have not been treated with Compound 1.
HeLa cells were treated by indicated concentrations of Compound 1 (or ellipticine as negative control) for 2 h.
Amount and phosphorylation status of cofilin were determined as described in Example 2. In vitro phosphorylated cofilin (left) was used as control.
HeLa cells were treated by 25 μM of Compound 1 for indicated time. Amount and phosphorylation status of cofilin were determined as described in Example 2.
On the technique in general: Immunoblotting shows a protein as a band on a membrane.

`Cc1c2cc[nH]c(=O)c2c(C)c2c1[nH]c1ccc(OC(=O)c3ccccc3)cc12` [Compound 1, 9-benzoyloxy-5,11-dimethyl-2H,6H-pyrido[4,3-b]carbazol-1-one]: the “Protection of the actin network from depolymerization by latrunculin B” value in experiment [1] (HeLa cells, confocal microscope) was “protects the actin network”. Further, in experiment [2] (25 μM for 2 h, then replaced by RPMI medium), the “Reversibility of inhibition of Ser3-cofilin phosphorylation in HeLa cells” value is reported as “phospho-cofilin is synthesized again”. Further, in experiment [2], the “Inhibition of Ser3-cofilin phosphorylation in HeLa cells” value is recorded as “clearly inhibits the formation of phospho-cofilin, in a dose-dependent manner”. The “Treatment time after which the inhibitory effect on cofilin phosphorylation is detected” value in experiment [2] (HeLa, 25 μM) came to 30 min.

Turning to `Cc1c2ccncc2c(C)c2c1[nH]c1ccccc12` [ellipticine], the “Effect on the stabilization of actin microfilaments” value in experiment [1] (general statement) was “does not have any effect”. Also, the “Inhibition of Ser3-cofilin phosphorylation in HeLa cells” value in experiment [2] was “does not avoid the phosphorylation of cofilin”.

Source of the values: patent US8604048B2, “Pyridocarbazole type compounds and applications thereof” (Centre National de la Recherche Scientifique, priority 2009, dated 2013).
